Experimental data from patent US20070237712A1, “Methods of Redistributing Apical Target Antigens to Detect and Treat Cellular Proliferative Disease” (priority 2004, published 2007).
“Also recorded” adds a separate entry of the source.

Key:
Assay type in all cases: cell-based
PSMA [1] = assay: Selective cell surface biotinylation assay of PSMA at apical or basolateral plasma membrane
Protocol: (§1) MDCK cells (clone II) were obtained from the ATCC (Manassas, Va.) and cultured in DMEM (Gibco BRL, Rockville, Md.) supplemented with 10% FBS, 2 mM L-glutamine, 25 units/ml penicillin, 25 μg/ml streptomycin, and 100 μM non-essential amino acids. Cells were grown at 37° C. in a humidified incubator with 5% CO2. Cells were treated for 10 hours with 10 mM sodium butyrate to enhance PSMA expression. For experiments involving inhibition of N-glycosylation or microtubule depolymerization, cells were treated for 3 hours with 5 μg/ml tunicamycin (Sigma, St. Louis, Mo.) or 4 μg/ml nocodazole (Sigma), or 2 μM vinblastine, vincristine, or vinorelbine (Sigma) in DMEM at 37° C. prior to the indicated experiment, unless otherwise noted.
(§2) MDCK cells were grown to confluence on transwell filters, as determined by TER, and biotinylation of the apical or basolateral surface was performed as described (25). […]
Samples were separated on 10% SDS polyacrylamide gels and transferred to nitrocellulose. […] After washing three times in PBST and once in PBS, bound antibody was detected by peroxidase-catalyzed ECL-Plus (Amersham, Buckinghamshire, UK). Densitometric analysis and quantification of bands was performed using ImageQuant software (Molecular Dynamics, Sunnyvale, Calif.). […]

MDCK-PSMA cells [2] = assay: Post-Golgi analysis assay: co-localization of PSMA and Na,K-β-GFP vesicles after 20° C. block; conditions: data not shown
Protocol: MDCK-PSMA cells transiently transfected to express Na,K-β-GFP were grown on glass coverslips and treated with nocodazole or tunicamycin. Cells were incubated for 6 hours at 20° C. to accumulate newly synthesized protein in the Golgi and TGN, subsequently transferred to 37° C. for 30 minutes, and subject to immunofluorescence analysis as described above. Laser scanning confocal microscopy was performed using a Zeiss Axiovert 200 inverted microscope (Carl Zeiss, Inc, Thornwood, N.Y.). Samples were excited with Argon and Helium/Neon lasers and single channel images were generated and analyzed using the Zeiss LSM 510 Meta imaging system (Carl Zeiss, Inc.) by recording light emitted between 505 and 543 nm for GFP and above 560 nm for CY3.

PSMA [3] = assay: Surface immunofluorescence of PSMA; conditions: MDCK-PSMA cells treated with nocodazole; data not shown
Protocol: as §1
For cell surface staining, MDCK cells were grown on transwell filters and the transepithelial electrical resistance (TER) was determined using an EVOM Epithelial Voltohmeter (World Precision Instruments, Sarasota, Fla.). […]
Confocal microscopy was performed using a Fluoview laser scanning confocal microscope (Olympus America, Melville, N.Y.) as described (25). To detect FITC and propidium iodide, samples were excited with krypton and argon lasers and light emitted between 525 and 540 nm was recorded for FITC and above 630 nm for propidium iodide. Images were generated and analyzed using the Fluoview image analysis software, version 2.1.39 (Olympus America).

Na,K-ATPase = assay: Cell surface biotinylation / immunoblot of basolateral marker Na,K-ATPase; conditions: MDCK-PSMA cells treated with nocodazole; FIG. 5B
Protocol: as §1, §2
Samples were separated on 10% SDS polyacrylamide gels and transferred to nitrocellulose. […] After washing three times in PBST and once in PBS, bound antibody was detected by peroxidase-catalyzed ECL-Plus (Amersham, Buckinghamshire, UK). Densitometric analysis and quantification of bands was performed using ImageQuant software (Molecular Dynamics, Sunnyvale, Calif.).

PSMA [4] = assay: Antibody internalization trafficking assay (pulse-chase with mAb J591 in apical or basolateral chamber); conditions: MDCK-PSMA cells pulsed and chased in the presence of nocodazole (three hours); FIG. 5C
Protocol: as §1
Confluent monolayers of MDCK-PSMA cells on transwell filters were rinsed twice and incubated for 30 minutes in starving media [cystine/methionine free DMEM (CellGro, Herndon, Va.)] supplemented with 0.2% BSA. […]
For the antibody internalization trafficking assay, MDCK cells were metabolically labeled and chased in DMEM containing 5 μg/ml of mAb J591 added to either the apical or basolateral chamber. […] The relative amount of PSMA for each was calculated as a percentage of the total amount of labeled PSMA precipitated throughout the course of the experiment, as quantified by densitometry.

MDCK-PSMA cells [5] = assay: Domain specific internalization assay of J591; conditions: MDCK-PSMA monolayers, 2 μM drug 3 hours; for J591 uptake from the apical surface after drug treatment: then 5 μg/ml J591 30 minutes in apical chamber, FIG. 6F-H; for J591 internalization from the basolateral surface after drug treatment: then 5 μg/ml J591 30 minutes in basolateral chamber, FIG. 6J-L
Protocol: MDCK-PSMA cells were grown on […] pore size polycarbonate transwell filters (Corning, Corning, N.Y.) and grown to confluence as measured by transepithelial electrical resistance (TER) using an EVOM Epithelial Voltometer (World Precision Instruments, Sarasota, Fla.). Values were normalized for the area of the filter after subtracting the background resistance of a filter without cells. TER of 220-250Ω·cm^2 is indicative of the presence of functional tight junctions (24). Cells were treated with 2 μM of vinblastine, vincristine, or vinorelbine at 37° C. for 3 hours and subsequently incubated at 37° C. for 30 minutes in the presence of the indicated drug and 5 μg/ml of J591 added to either the apical or basolateral chamber. Cells were rinsed in PBS-CM, fixed, and subject to immunofluorescence analysis with FITC-conjugated secondary antibody. Single channel digital microscopic images were collected with an Olympus AX70 upright microscope using identical exposure parameters and analyzed with SPOT imaging software, version 4.0.4 (Diagnostic Instruments, Inc., Sterling Heights, Mich.).

microtubule cytoskeleton = assay: Immunofluorescence analysis of alpha-tubulin (microtubule integrity); conditions: MDCK-PSMA cells, 2 μM drug, 3 hours; FIG. 6B-D
Protocol: as §1
Tissue sections and MDCK cells were fixed in cold methanol at −20° C. for 30 minutes. Following fixation, specimens were placed in humidified chambers, washed with phosphate buffered saline containing 0.1 mM CaCl2 and 1 mM MgCl2 and 0.5% bovine serum albumin (PBS-CM-BSA), incubated 1 hour with primary antibody, washed with PBS-CM-BSA, incubated 30 minutes in secondary antibody, washed with PBS-CM-BSA, rinsed with distilled water, and mounted in Vectashield (Vector, Burlingame, Calif.).

Row | Compound | J591 uptake from the apical surface after drug treatment (MDCK-PSMA cells [5]) | J591 internalization from the basolateral surface after drug treatment (MDCK-PSMA cells [5]) | depolymerization of the microtubule cytoskeleton (microtubule cytoskeleton) | other results
1 | COC(=O)Nc1nc2cc(C(=O)c3cccs3)ccc2[nH]1 [nocodazole, methyl[5-(2-thienyl-carbonyl)-1H-benzimidazol-2-yl]-carbamate] |  |  |  | distribution of surface PSMA between apical and basolateral plasma membrane (PSMA [1]; MDCK-PSMA cells treated with nocodazole (4 μg/ml, 3 hours), FIG. 5A): homogeneous distribution; co-localization of PSMA and Na,K-β-GFP in post-Golgi vesicles (MDCK-PSMA cells [2]; in the presence of nocodazole, after release from 20° C. block): did not show an increased co-localization; PSMA expression at the basolateral plasma membrane relative to untreated cells (PSMA [3]): increased PSMA expression at the basolateral plasma membrane; polarity of the basolateral marker Na,K-ATPase (Na,K-ATPase): unaffected; radiolabeled PSMA precipitated with J591 in apical versus basolateral chamber (polarized delivery of PSMA) (PSMA [4]): equivalent levels; also recorded: abolished
2 | CC[C@]1(O)C[C@@H]2CN(CCc3c([nH]c4ccccc34)[C@@](C(=O)OC)(c3cc4c(cc3OC)N(C)[C@H]3[C@@](O)(C(=O)OC)[C@H](OC(C)=O)[C@]5(CC)C=CCN6CC[C@]43[C@@H]65)C2)C1 [vinblastine] | also taken up from the apical surface | dramatic increase | Extensive microtubule depolymerization | 
3 | CC[C@]1(O)C[C@H]2CN(CCc3c([nH]c4ccccc34)[C@@](C(=O)OC)(c3cc4c(cc3OC)N(C=O)[C@H]3[C@@](O)(C(=O)OC)[C@H](OC(C)=O)[C@]5(CC)C=CCN6CC[C@]43[C@@H]65)C2)C1 [vincristine] | also taken up from the apical surface | dramatic increase | Extensive microtubule depolymerization | 
4 | CCC1=C[C@@H]2CN(C1)Cc1c([nH]c3ccccc13)[C@@](C(=O)OC)(c1cc3c(cc1OC)N(C)[C@H]1[C@@](O)(C(=O)OC)[C@H](OC(C)=O)[C@]4(CC)C=CCN5CC[C@]31[C@@H]54)C2 [vinorelbine] | also taken up from the apical surface | dramatic increase | Extensive microtubule depolymerization | 
5 | tunicamycin |  |  |  | distribution of surface PSMA between apical and basolateral plasma membrane (PSMA [1]; MDCK-PSMA cells metabolically labeled in the presence of tunicamycin (10 μg/ml, 4 hours), FIG. 4): equivalent levels at both plasma membrane surfaces; level of co-localization of post-Golgi vesicles containing PSMA and Na,K-ATPase (MDCK-PSMA cells [2]; MDCK-PSMA cells incubated with tunicamycin, 20° C. block then 37° C., 38/88 vesicles): approximately 43%
